# Source: patent US20220211752A1, “METHIONINE AND CYSTEINE DEPRIVATION DIET AND FORMULATIONS TO INCREASE EFFECTIVENESS OF CANCER THERAPY” (THE TRUSTEES OF COLUMBIA UNIVERSITY IN THE CITY OF NEW YORK, priority 2020, published 2022)
# Peptide text beside a SMILES is read from it. * marks the point of attachment. Cbz = O=C(OCc1ccccc1)*; CH2F = FC*
# Experiments:
# [1] = system: MG1 cells; assay: Live cell confocal microscopy of Bodipy-C11 lipid peroxidation; format: cell-based, mouse
# Procedure: 1.3×10^5 MG1 cells were plated on poly-L-lysine coated 35 mm glass-bottom dishes (MatTek™ life sciences) for 24 hours. Cells were incubated for 30 minutes in basal media (DMEM (Gibco™ 11965092) with 0.5% FBS (Gibco™ 16000044), antibiotic-antimycotic (Thermo Scientific™ 15240096), N2 supplement (Thermo Fisher Scientific™, 17502-048), and 10 ng/ml each of recombinant human PDGF-AA (Peprotech, 100-13A) and FGFb (Peprotech™. 10018B50UG)) media containing 5 μM BODIPY-C11. Media were replaced with fresh basal media and cells were imaged on a Nikon™ A1RMP confocal microscope at 37° C. in a humidified chamber with 5% C02. Time-lapse images were acquired using a 40×/1.3 NA oil immersion objective and focus was maintained using the Perfect Focus™ System. Excitation was achieved using 488 nm and 561 nm laser illumination; emission of the oxidized and reduced forms of BODIPY-C11 was captured using a 525/50 and a 595/50 filter, respectively. At time 0, RSL3 (500 nM) or RSL3 (500 nM)+Ferrostatin (2 μM) were added and images were acquired every 30 seconds for a total of 30 minutes. Images were exported to ImageJ™ for analysis.
# [2] = system: MG1 cells; assay: Bodipy-C11 flow cytometry, IKE with or without CMD; format: cell-based, mouse; conditions: 10 uM Ferrostatin-1
# Source text: (§1) Adherent cells were lifted using TrypLE (ThermoFisher™ Scientific).
# (§2) A basis for the invention that depriving glioma cells of sulfur containing amino acids (cystine and methionine) will result in lower levels of glutathione (which normally protects cells from lipid peroxidation) and therefore would sensitize the glioma cells to ferroptosis inducing drugs. […] Both these effects were rescued by ferrostatin.
# [3] = system: mouse glioma cell lines; assay: Dose response cell viability, IKE with or without CMD; format: cell-based; conditions: 10 uM Ferrostatin-1
# Source text: as §2
# [4] = system: MG4 cells; assay: Bodipy-C11 flow cytometry, radiation plus CMD; format: cell-based, mouse; conditions: Ferrostatin-1
# Source text: as §1
# Radiation is a known ferroptosis inducer. […] Treatment of both mouse glioma cells (MG1 and MG4) and human GBM cells (TS543) is shown.
# [5] = system: human diffuse astrocytoma slice culture; assay: H2DCFDA flow cytometry of human glioma slice cultures, IKE plus radiation; format: cell-based; conditions: 10 μM IKE, 0 or 2 Gy radiation for 24 hours
# Source text: To further understand the translational relevance of these findings to human glioma samples, an acute organotypic slice culture model was used. […] The tissue was placed on a Millicell™ cell culture insert in treatment media. This media comprised of DMEM+ Hams-F12 without cysteine or methionine (MyBioSource, MBS652871) or DMEM+ Hams-F12 with cysteine and methione to create the to varied conditions that would undergo radiation or IKE treatment.
# Horizontal bars indicate H2DCFDA-positive cell populations.
# [6] = system: MG3 cells; assay: 384-well dose-response to GPX4 inhibitors with or without CMD; format: cell-based, mouse; conditions: dose response assays, with or without 2 uM Ferrostatin-1
# Procedure: (§3) Cell viability was assessed using the Cell-Titer^Glo™ luminescence assay. Murine glioma cells were plated in triplicate at a density of 6,000 cells per well in a 96-well plate (ThermoFisher Scientific™). Twenty-four hours after plating, media was removed and treatment media was added. Viability was assessed 24 hours after treatment. Human glioma cells were plated at a density of 2,000 cells per well. Cells were plated in normal media or cysteine/methionine deprived media. Twenty-four hours after plating, media was changed to begin drug treatment. Forty-eight hours after plating, luminescence was measured.
# (§4) Averages across 3 independent experiments are reported. For experiments conducted in 384-well plates, mouse glioma cells were plated at a density of 1,600 cells per well and human glioma cells were plated at a density of 1,000 cells per well. The assays as described above were quantified using Cell-Titer Glo™ (Promega™) ATP based bioluminescence. To determine cell viability, a 50% Cell Titer Glo™ and 50% cell culture medium was added to each well and incubated at room temperature for 10 minutes. Luminescence was assessed on a Promega™ GloMax™ Microplate Reader.
# [7] = system: MG1 cells; assay: Dose-response of MG1 cells to RSL3 plus cell death inhibitors; format: cell-based, mouse; conditions: 5 uM ZVAD-FMK; 2 uM Nec-1s
# Procedure: as §3, §4
# [8] = system: glioma cell lines; assay: Cell viability dose-response to RSL3 (Cell-Titer Glo); format: cell-based, mouse, human
# Procedure: as §3, §4
# To test this, media was adapted for cell culture based on the previous ferroptosis permissive glioma culture methods. […]
# [9] = system: human primary glioblastoma; assay: H2DCFDA flow cytometry of ex vivo organotypic slice cultures, RSL3 with or without CMD; format: cell-based; conditions: 100 nM RSL3 plus CMD
# Procedure: Mice were sacrificed by cervical dislocation.
# Slice cultures were dissociated in papain (9.5 mL DPBS, 500 μL papain, 1.67 μL 6 M NaOH, 2 mg L-cysteine, 100 μL DNAse) and incubated in a warm bath shaker at 37° C. for 30 minutes. After centrifugation at 400×g for 5 minutes, the papain was aspirated and slices were resuspended in ice cold PBS and triturated with glass tip Pasteur pipettes. This process was repeated one time and then the cell suspension was resuspended in a 30% sucrose solution and spun at 1000×g for 5 minutes. The cell suspension was resuspended in PBS and stained with Calcein Blue (final concentration 5 μM) and H2DCFDA (final concentration 10 μM), incubated in a water bath at 37° C. for 10 minutes. Suspensions were spun down at 500×g for 5 minutes and resuspended in PBS and taken for flow cytometric analysis on a LSRIII Fortessa™ machine. Cell and Slice culture suspensions were filtered in polystyrene flow tubes (Fisher Scientific™). Data were collected on an LSRIII Fortessa™ flow analyzer and analyzed using FlowJo™ v10.
# The slices were treated with RSL3 and assayed via flow cytometry for levels of reactive oxygen species (ROS) using H2DCFDA.
smiles,measurement,setting,value
CCOC(=O)c1ccc(NC2CCCCC2)c(N)c1 [Ferrostatin-1],effect on RSL3 induced lipid peroxidation,[1]; 500 nM RSL3 and 2 uM Ferrostatin-1,prevented this lipid peroxidation
same,rescue of CMD plus IKE lipid peroxidation,[2],rescued
same,rescue of CMD enhanced IKE induced cell death,[3],rescued
same,rescue of lipid peroxidation from radiation plus CMD,[4],complete rescue
"CC(C)Oc1ccc(C(=O)Cn2ccnc2)cc1-n1c(CN2CCN(C(=O)COc3ccc(Cl)cc3)CC2)nc2ccccc2c1=O [IKE, imidazole ketone erastin]","H2DCFDA-positive cells, interaction with radiation",[5],synergy of radiation with IKE treatment
Cc1onc(C(=O)N2CCN(C(c3ccc(Cl)cc3)c3ccc(Cl)cc3)CC2)c1[N+](=O)[O-] [ML-210],ferroptosis in combination with CMD,[6],synergistic enhancement of ferroptosis with CMD
CN1C(=O)NC(Cc2c[nH]c3c(Cl)cccc23)C1=O (stereo not shown) [Nec-1s],rescue of RSL3 mediated cell death,[7],not rescuable
COC(=O)c1ccc([C@@H]2c3[nH]c4ccccc4c3C[C@@H](C(=O)OC)N2C(=O)CCl)cc1 [RSL3],cell viability with CMD plus RSL3,"[8]; dose response curves, dual treatment (FIG. 30)",stark difference in cell viability with dual treatment
same,sensitivity to ferroptosis by RSL3,"[8]; five cell lines assayed, 384-well dose-response",baseline sensitivity to ferroptosis
same,lipid peroxidation (Bodipy-C11 green fluorescence shift),[1]; 500 nM RSL3,induction of lipid peroxidation
same,ferroptosis in combination with CMD,[6],synergistic enhancement of ferroptosis with CMD
same,"reactive oxygen species (ROS) levels, H2DCFDA",[9],increased ROS to levels equivalent to a high dose of RSL3 (500 nM)
COC(=O)C[C@H](NC(=O)[C@H](C)NC(=O)[C@@H](NC(=O)OCc1ccccc1)C(C)C)C(=O)CF [ZVAD-FMK] (Cbz-Val-Ala-Asp(OMe)-CH2F),rescue of RSL3 mediated cell death,[7],not rescuable
